Experimental data taken from patent US20120220564A1, “SELECTIVE CALCIUM CHANNEL MODULATORS” (Zalicus Pharmaceuticals Ltd., priority 2009, published 2012).

Assays:
[1] = system: minimal muscular or neurological impairment (rotarod); test: Mouse rotarod assay; type: in vivo, mice
Method: To assess a compound's undesirable side effects (toxicity), animals can be monitored for overt signs of impaired neurological or muscular function. In mice, the rotarod procedure (Dunham and Miya, J. Am. Pharmacol. Assoc. 46:208-209 (1957)) is used to disclose minimal muscular or neurological impairment (MMI). When a mouse is placed on a rod that rotates at a speed of 6 rpm, the animal can maintain its equilibrium for long periods of time. The animal is considered toxic if it falls off this rotating rod three times during a 1-min period.

[2] = system: Lamina I/II spinal cord neurons; test: Lamina assay, current-clamp recordings in spinal cord slices; type: cell-based, rat; conditions: Lamina I and II neurons
Description: Male Wistar rats (P6 to P9 for voltage-clamp and P15 to P18 for current-clamp recordings) were anaesthetized through intraperitoneal injection of Inactin (Sigma). The spinal cord was then rapidly dissected out and placed in an ice-cold solution protective sucrose solution containing (in mM): 50 sucrose, 92 NaCl, 15 D-Glucose, 26 NaHCO3, 5 KCl, 1.25 NaH2PO4, 0.5 CaCl2, 7 MgSO4, 1 kynurenic acid, and bubbled with 5% CO2/95% O2. The meninges, dura, and dorsal and ventral roots were then removed from the lumbar region of the spinal cord under a dissecting microscope. The “cleaned” lumbar region of the spinal cord was glued to the vibratome stage and immediately immersed in ice cold, bubbled, sucrose solution. For current-clamp recordings, 300 to 350 μm parasagittal slices were cut to preserve the dendritic arbour of lamina I neurons, while 350 to 400 μm transverse slices were prepared for voltage-clamped […] channel recordings. Slices were allowed to recover for 1 hour at 35° C. in Ringer solution containing (in mM): 125 NaCl, 20 D-Glucose, 26 NaHCO3, 3 KCl, 1.25 NaH2PO4, 2 CaCl2, 1 MgCl2, 1 kynurenic acid, 0.1 picrotoxin, bubbled with 5% CO2/95% O2. The slice recovery chamber was then returned to room temperature (20 to 22° C.) and all recordings were performed at this temperature.
Neurons were visualized using IR-DIC optics (Zeiss Axioskop 2 FS plus, Gottingen, Germany), and neurons from lamina I and the outer layer of lamina II were selected based on their location relative to the substantia gelatinosa layer. Neurons were patch-clamped using borosilicate glass patch pipettes with resistances of […] Current-clamp recordings of lamina I/II neurons in the intact slice, the external recording solution was the above Ringer solution, while the internal patch pipette solution contained (in mM): 140 KGluconate, 4 NaCl, 10 HEPES, 1 EGTA, 0.5 MgCl2, 4 MgATP, 0.5 Na2GTP, adjusted to pH 7.2 with 5 M KOH and to 290 mOsm with D-Mannitol (if necessary). […]

[3] = system: Rat SNL tactile allodynia; test: L5/L6 spinal nerve ligation (SNL) Chung pain model, tactile allodynia (von Frey); type: in vivo; conditions: for % Antiallodynia (Mean ± SD): 30 mg/kg PO, n = 7-8; for anti-allodynia effects: second repetition of the study, n=9
Description: The Spinal Nerve Ligation is an animal model representing peripheral nerve injury generating a neuropathic pain syndrome. In this model experimental animals develop the clinical symptoms of tactile allodynia and hyperalgesia. L5/L6 Spinal nerve ligation (SNL) injury was induced using the procedure of Kim and Chung (Kim et al., Pain 50:355-363 (1992)) in male Sprague-Dawley rats (Harlan; Indianapolis, Ind.) weighing 200 to 250 grams.
Anaesthesia was induced with 2% isofluorane in O2 at 2 L/min and maintained with 0.5% isofluorane in O2. Rats were then shaved and aseptically prepared for surgeries. A 2 cm paraspinal incision was made at the level of L4-S2. L4/L5 was exposed by removing the transverse process above the nerves with a small rongeur. The L5 spinal nerve is the larger of the two visible nerves below the transverse process and lies closest to the spine. The L6 spinal nerve is located beneath the corner of the slope bone. A home-made glass Chung rod was used to hook L5 or L6 and a pre-made slip knot of 4.0 silk suture was placed on the tip of the rod just above the nerve and pulled underneath to allow for the tight ligation. The L5 and L6 spinal nerves were tightly ligated distal to the dorsal root ganglion. The incision was closed, and the animals were allowed to recover for 5 days.
Sham control rats underwent the same operation and handling as the experimental animals, but without SNL.
Prior to initiating drug delivery, baseline behavioural testing data is obtained. At selected times after infusion of the Test or Control Article behavioural data can then be collected again.
The assessment of tactile allodynia consisted of measuring the withdrawal threshold of the paw ipsilateral to the site of nerve injury in response to probing with a series of calibrated von Frey filaments (innocuous stimuli). Animals were acclimated to the suspended wire-mesh cages for 30 min before testing. Each von Frey filament was applied perpendicularly to the plantar surface of the ligated paw of rats for 5 sec. A positive response was indicated by a sharp withdrawal of the paw. For rats, the first testing filament is 4.31. Measurements were taken before and after administration of test articles. […] The protocol was repeated until three changes in behaviour were determined (“up and down” method) (Chaplan et al., J. Neurosci. Methods 53:55-63 (1994)). The 50% paw withdrawal threshold was determined as (10^[Xf+kδ])/10,000, where Xf=the value of the last von Frey filament employed, k=Dixon value for the positive/negative pattern, and δ=the logarithmic difference between stimuli. The cut-off values for rats were no less than 0.2 g and no higher than 15 g (5.18 filament); for mice no less than 0.03 g and no higher than 2.34 g (4.56 filament). A significant drop of the paw withdrawal threshold compared to the pre-treatment baseline is considered tactile allodynia.

## N[C@@H]1CCCC[C@H]1C(=O)N1CCC(CC(=O)Nc2cc(C(F)(F)F)cc(C(F)(F)F)c2)CC1 (racemic) [Compound 3, trans-2-(1-(2-aminocyclohexanecarbonyl)piperidin-4-yl)-N-(3,5-bis(trifluoromethyl)phenyl)acetamide]
[1]; 0.25 hr
  Rotarod Assay (% impaired): 0%
[1]; 0.5 hr
  Rotarod Assay (% impaired): 75%
[1]; 1 hr
  Rotarod Assay (% impaired): 100%
[1]; 2 hr
  Rotarod Assay (% impaired): 75%
[1]; 4 hr
  Rotarod Assay (% impaired): 50%
[2]
  % Spike Change Mean: −51.1%
[3]; 1 h
  % Antiallodynia (Mean ± SD): 36 ± 19 %
[3]; 4 h
  % Antiallodynia (Mean ± SD): 4 ± 8%
[3]; 1 hr
  anti-allodynia effects: 68±12%
[3]; 2 hr
  anti-allodynia effects: 76±6%
[3]; 4 hr
  anti-allodynia effects: 42±14%

## N-(3,5- bis(trifluoromethyl) phenyl)-2-(1- (piperidine-3- carbonyl)piperidin-4- yl)acetamide [Compound 2]
[1]; 0.25 hr
  Rotarod Assay (% impaired): 25%
[1]; 0.5 hr
  Rotarod Assay (% impaired): 50%
[1]; 1 hr
  Rotarod Assay (% impaired): 100%
[1]; 2 hr
  Rotarod Assay (% impaired): 100%
[1]; 4 hr
  Rotarod Assay (% impaired): 50%
[2]
  % Spike Change Mean: −57.2%
[3]; 1 hr
  Rat SNL tactile allodynia (% antiallodynia): 38%
[3]; 2 hr
  Rat SNL tactile allodynia (% antiallodynia): 44%
[3]; 4 hr
  Rat SNL tactile allodynia (% antiallodynia): 27%
